Counter-ions that a name gives are not always drawn.
Target: CK2A1 (CK2α/β) (Homo sapiens, UniProt P68400)
Experiment: CK2 kinase assay, CK2A1 (CK2α/β)
Format: biochemical
Conditions: Table A; read-out: CK2A1 (CK2α/β) (IC50)

Chain of CK2A1 (CK2α/β) (P68400 whole entry, species assumed): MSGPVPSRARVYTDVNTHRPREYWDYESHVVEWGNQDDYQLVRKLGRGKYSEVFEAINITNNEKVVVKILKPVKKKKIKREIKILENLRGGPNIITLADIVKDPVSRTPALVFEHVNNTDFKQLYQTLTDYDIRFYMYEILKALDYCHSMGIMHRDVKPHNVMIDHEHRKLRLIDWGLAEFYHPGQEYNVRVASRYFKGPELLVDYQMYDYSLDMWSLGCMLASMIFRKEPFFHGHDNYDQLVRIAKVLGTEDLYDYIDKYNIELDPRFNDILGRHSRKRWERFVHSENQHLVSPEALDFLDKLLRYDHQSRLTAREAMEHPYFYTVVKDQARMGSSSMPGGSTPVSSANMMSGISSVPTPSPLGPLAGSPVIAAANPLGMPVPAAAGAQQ
Chain of CK2A1 (CK2α/β) (P67870 whole entry partner, species assumed): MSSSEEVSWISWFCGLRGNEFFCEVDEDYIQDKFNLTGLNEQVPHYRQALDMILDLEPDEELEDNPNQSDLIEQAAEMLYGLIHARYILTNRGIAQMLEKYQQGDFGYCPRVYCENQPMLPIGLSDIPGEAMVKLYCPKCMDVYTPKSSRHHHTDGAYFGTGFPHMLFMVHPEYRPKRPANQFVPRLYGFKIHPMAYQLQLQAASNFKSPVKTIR

SMILES	IC50 [nM]
CCNc1nc(Nc2cc(C#N)cc(C3CN(C[C@H](C)O)C3)c2Cl)nn2c(C#N)cnc12 [Example 368, (S)-2-((2-chloro-5-cyano-3-(1-(2-hydroxypropyl)azetidin-3-yl)phenyl)amino)-4-(ethylamino)imidazo[2,1-f][1,2,4]triazine-7-carbonitrile]	3.62
COC1CCN(C2CN(c3cc(C(F)F)cc(Nc4nc(NC5CC5)c5ncc(C#N)n5n4)c3Cl)C2)CC1 [Example 260, 2-((2-chloro-5-(difluoromethyl)-3-(3-(4-methoxy-1-piperidinyl)-1-azetidinyl)phenyl)amino)-4-(cyclopropylamino)imidazo[2,1-f][1,2,4]triazine-7-carbonitrile]	2.12
N#Cc1cc(Nc2nc(NC3CC3)c3ncc(C#N)n3n2)c(Cl)c(N2CCC(O)CC2)c1 [Example 39, 2-((2-chloro-5-cyano-3-(4-hydroxy-1-piperidinyl)phenyl)amino)-4-(cyclopropylamino)imidazo [2,1-f][1,2,4]triazine-7-carbonitrile]	0.46
N#Cc1cc(CN2CCN(C3COC3)CC2)c(Cl)c(Nc2nc(NC3CC3)c3ncc(C#N)n3n2)c1 [Example 403, 2-((2-chloro-5-cyano-3-((4-(oxetan-3-yl)piperazin-1-yl)methyl)phenyl)amino)-4-(cyclopropylamino)imidazo[2,1-f][1,2,4]triazine-7-carbonitrile HCl salt]	0.69
N#Cc1cc(Nc2nc(NC3CC3)c3ncc(C#N)n3n2)c(Cl)cc1NC1CCNCC1 [Example 410, 2-((2-chloro-5-cyano-4-(piperidin-4-ylamino)phenyl)amino)-4-(cyclopropylamino)imidazo[2,1-f][1,2,4]triazine-7-carbonitrile]	0.68
COC(=O)N[C@@H]1CCN(c2cc(C#N)cc(Nc3nc(NC4CC4)c4ncc(C#N)n4n3)c2Cl)C[C@H]1OC(=O)[C@@H](N)C(C)C (racemic) [Example 192, (+/−)-(R)-(3S,4S)-1-(2-chloro-5-cyano-3-((7-cyano-4-(cyclopropylamino)imidazo[2,1-f][1,2,4]triazin-2-yl)amino)phenyl)-4-((methoxycarbonyl)amino)piperidin-3-yl 2-amino-3-methylbutanoate]	2.12
COC(=O)N[C@H]1CCN(c2cc(C#N)cc(Nc3nc(NC4CC4)c4ncc(C#N)n4n3)c2Cl)C[C@@H]1OC(=O)Cc1ccc(OP(=O)(O)O)cc1 [Example 199, (3S,4S)-1-(2-chloro-5-cyano-3-((7-cyano-4-(cyclopropylamino)imidazo[2,1-f][1,2,4]triazin-2-yl)amino)phenyl)-4-((methoxycarbonyl)amino)-3-piperidinyl (4-(phosphonooxy)phenyl)acetate]	0.45
N#Cc1cc(Nc2nc(NC3CC3)c3ncc(C#N)n3n2)c(Cl)c(N2CCN(C(=O)CCN3CCCCC3)CC2)c1 [Example 82, 2-((2-chloro-5-cyano-3-(4-(3-(1-piperidinyl)propanoyl)-1-piperazinyl)phenyl)amino)-4-(cyclopropylamino) imidazo[2,1-f][1,2,4] triazine-7-carbonitrile]	0.79
CC(C)(O)CN1CCC(c2cc(C#N)cc(Nc3nc(NC4CC4)c4ncc(C#N)n4n3)c2Cl)CC1 [Example 219, 2-((2-chloro-5-cyano-3-(1-(2-hydroxy-2-methylpropyl)-4-piperidinyl)phenyl)amino)-4-(cyclopropylamino)imidazo[2,1-f][1,2,4]triazine-7-carbonitrile]	0.59
CCNc1nc(Nc2cc(C#N)cc(N3CC[C@@H]4[C@@H](C3)OCCN4C)c2Cl)nn2c(C#N)cnc12 (racemic) [Example 373, (+/−)-2-((2-chloro-5-cyano-3-((4aR,8 aR)-1-methylhexahydro-1H-pyrido[3,4-b][1,4]oxazin-6(7H)-yl)phenyl)amino)-4-(ethylamino)imidazo[2,1-f][1,2,4]triazine-7-carbonitrile]	0.99
N#Cc1cc(Nc2nc(NC3CC3)c3ncc(C#N)n3n2)c(Cl)c(N2CCC(N[C@@H]3CC[C@H](O)C3)CC2)c1 (racemic) [Example 121, (+/−) 2-((2-chloro-5-cyano-3-(4-(((1R,3S)-3-hydroxycyclopentyl)amino)-1-piperidinyl)phenyl)amino)-4-(cyclopropylamino)imidazo [2,1-f][1,2,4]triazine-7-carbonitrile]	1.05
N#Cc1cnc2c(NC3CC3)nc(Nc3cc(C(F)F)cc(N4CCC(O)CC4)c3Cl)nn12 [Example 255, 2-((2-chloro-5-(difluoromethyl)-3-(4-hydroxy-1-piperidinyl)phenyl)amino)-4-(cyclopropylamino)imidazo[2,1-f][1,2,4]triazine-7-carbonitrile]	0.53
COCC(=O)N1CC(N2CCN(c3cc(C#N)cc(Nc4nc(NC5CC5)c5ncc(C#N)n5n4)c3Cl)CC2)C1 [Example 497, 2-[(2-chloro-5-cyano-3-{4-[1-(2-methoxyacetyl)azetidin-3-yl]piperazin-1-yl}phenyl)amino]-4-(cyclopropylamino)imidazo[2,1-f][1,2,4]triazine-7-carbonitrile]	0.82
CCNc1nc(Nc2cc(C#N)cc(C3CN(C(=O)CC#N)C3)c2Cl)nn2c(C#N)cnc12 [Example 369, 2-((2-chloro-5-cyano-3-(1-(2-cyanoacetyl)azetidin-3-yl)phenyl)amino)-4-(ethylamino)imidazo[2,1-f][1,2,4]triazine-7-carbonitrile]	1.58

The next lines start with the values.

IC50 [nM]	SMILES
1.38	Cc1nn(C)c(C)c1-c1cc(C#N)cc(Nc2nc(NC3CC3)c3ncc(C#N)n3n2)c1Cl [Example 717, 2-((2-chloro-5-cyano-3-(1,3,5-trimethyl-1H-pyrazol-4-yl)phenyl)amino)-4-(cyclopropylamino)imidazo[2,1-f][1,2,4]triazine-7-carbonitrile]
1.52	COC(=O)NN1CCN(c2cc(C#N)cc(Nc3nc(NC4CC4)c4ncc(C#N)n4n3)c2Cl)CC1 [Example 790, methyl (4-(2-chloro-5-cyano-3-((7-cyano-4-(cyclopropylamino)imidazo[2,1-f][1,2,4]triazin-2-yl)amino)phenyl)piperazin-1-yl)carbamate]
1.74	CC(C)(CO)NCc1cc(C#N)cc(Nc2nc(NC3CC3)c3ncc(C#N)n3n2)c1Cl [Example 674, 2-((2-chloro-5-cyano-3-(((1-hydroxy-2-methylpropan-2-yl)amino)methyl)phenyl)amino)-4-(cyclopropylamino)imidazo[2,1-f][1,2,4]triazine-7-carbonitrile]
3.08	CO[C@H](C)C(=O)N1CC(N2CCN(c3cc(C#N)cc(Nc4nc(NC5CC5)c5ncc(C#N)n5n4)c3Cl)CC2)C1 [Example 513, 2-{[2-chloro-5-cyano-3-(4-{1-[(2R)-2-methoxypropanoyl]azetidin-3-yl}piperazin-1-yl)phenyl]amino}-4-(cyclopropylamino)imidazo[2,1-f][1,2,4]triazine-7-carbonitrile]
2.9	CCNc1nc(Nc2cc(C#N)cc(N3CCN(C4CN(C)C4)CC3)c2Cl)nn2c(C#N)cnc12 [Example 583, 2-({2-chloro-5-cyano-3-[4-(1-methylazetidin-3-yl)piperazin-1-yl]phenyl}amino)-4-(ethylamino)imidazo [2,1-f][1,2,4]triazine-7-carbonitrile]
1.83	N#Cc1cc(Nc2nc(NC3CC3)c3ncc(C#N)n3n2)c(Cl)c(N2CCN(CCO)CC2)c1 [Example 590, 2-({2-chloro-5-cyano-3-[4-(2-hydroxyethyl)piperazin-1-yl]phenyl}amino)-4-(cyclopropylamino)imidazo [2,1-f][1,2,4]triazine-7-carbonitrile]
1.4	COC[C@H](NC[C@H]1CN(c2cc(C#N)cc(Nc3nc(NC4CC4)c4ncc(C#N)n4n3)c2Cl)CCO1)C1CC1 [Example 704, 2-({2-chloro-5-cyano-3-[(2S)-2-({[(1R)-1-cyclopropyl-2-methoxyethyl]amino}methyl)morpholin-4-yl]phenyl}amino)-4-(cyclopropylamino)imidazo[2,1-f][1,2,4]triazine-7-carbonitrile]
0.27	CN1CCN(CCC(F)(F)c2cc(C#N)cc(Nc3nc(NC4CC4)c4ncc(C#N)n4n3)c2Cl)CC1 [Example 738, 2-((2-chloro-5-cyano-3-(1,1-difluoro-3-(4-methylpiperazin-1-yl)propyl)phenyl)amino)-4-(cyclopropylamino)imidazo[2,1-f][1,2,4]triazine-7-carbonitrile]
0.71	CCNc1nc(Nc2cc(C#N)cc(N3CCC4(CC3)CN(C)C(=O)O4)c2Cl)nn2c(C#N)cnc12 (racemic) [Example 781, (+/−)-2-((2-chloro-5-cyano-3-(3-methyl-2-oxo-1-oxa-3,8-diazaspiro[4.5]decan-8-yl)phenyl)amino)-4-(ethylamino)imidazo[2,1-f][1,2,4]triazine-7-carbonitrile]
1.36	CN1CCN(c2cc(C#N)cc(Nc3nc(NC4CC4)c4ncc(C#N)n4n3)c2Cl)CC1CO (racemic) [Example 698, (+/−)-2-({2-chloro-5-cyano-3-[3-(hydroxymethyl)-4-methylpiperazin-1-yl]phenyl}amino)-4-(cyclopropylamino)imidazo[2,1-f][1,2,4]triazine-7-carbonitrile]
1.35	N#Cc1cc(Nc2nc(NC3CC3)c3ncc(C#N)n3n2)c(Cl)c(N2CCN(C3CC3)CC2)c1 [Example 593, 2-{[2-chloro-5-cyano-3-(4-cyclopropylpiperazin-1-yl)phenyl]amino}-4-(cyclopropylamino)imidazo [2,1-f][1,2,4]triazine-7-carbonitrile]
0.6	COC(C)CN1CCN(c2cc(C#N)cc(Nc3nc(NC4CC4)c4ncc(C#N)n4n3)c2Cl)CC1 (stereo not drawn) [Example 596, 2-({2-chloro-5-cyano-3-[4-(2-methoxypropyl)piperazin-1-yl]phenyl}amino)-4-(cyclopropylamino)imidazo [2,1-f][1,2,4]triazine-7-carbonitrile]
0.7	COC(=O)N[C@H]1CCN(c2cc(C#N)cc(Nc3nc(NC4CC4)c4ncc(C#N)n4n3)c2Cl)C[C@H]1NCC(F)F [Example 749, methyl ((3R,4S)-1-(2-chloro-5-cyano-3-((7-cyano-4-(cyclopropylamino)imidazo[2,1-f][1,2,4]triazin-2-yl)amino)phenyl)-3-((2,2-difluoroethyl)amino)piperidin-4-yl)carbamate]

Source: patent publication US9273057B2 (Bristol-Myers Squibb Company, priority 2012, dated 2016)
